Converted amounts (≈) assume the structure as drawn. Read-outs that look alike come from different tables or passages of the source. Values belong to the molecule of their own block, whether it stands above or below them.
What was measured:
[1] = tested on: MRSA ATCC 43300; assay: MIC/MBC broth microdilution, MRSA ATCC 43300; assay type: cell-based, Staphylococcus aureus
Description: (§1) Determination of minimum inhibitory concentration (MIC). The MICs of the lead thiazole compound (compound 1a) and nine derivatives tested against all 18 MRSA strains were determined, in triplicate samples, using the broth microdilution method in accordance with the recommendations contained in the CLSI guidelines.

[2] = tested on: MRSA USA500 (NRS385); assay: MIC/MBC broth microdilution, NRS385 (USA500); assay type: cell-based; details: Staphylococcus aureus, Table 8, NRS385
Description: as §1

[3] = tested on: NRS107; assay: MIC/MBC broth microdilution, NRS107; assay type: cell-based; details: Staphylococcus aureus
Description: as §1

[4] = tested on: MRSA NRS384 (USA300); assay: MIC/MBC broth microdilution, NRS384 (USA300); assay type: cell-based; details: Staphylococcus aureus
Description: as §1

[5] = tested on: NRS194; assay: MIC/MBC broth microdilution, NRS194; assay type: cell-based; details: Staphylococcus aureus
Description: as §1

[6] = tested on: VISA LIM 3 (NRS37); assay: MIC/MBC broth microdilution, NRS37 (VISA LIM 3); assay type: cell-based; details: Staphylococcus aureus, Table 8, NRS37 (VISA)
Description: as §1

[7] = tested on: MRSA ATCC 700699 (NRS1, VISA); assay: MIC/MBC broth microdilution, NRS1 (ATCC 700699); assay type: cell-based; details: Staphylococcus aureus, Table 8, NRS1 (VISA)
Description: as §1

[8] = tested on: NRS119; assay: MIC/MBC broth microdilution, NRS119; assay type: cell-based; details: Staphylococcus aureus, Table 8, NRS119
Description: as §1

[9] = tested on: MRSA USA400 (NRS123); assay: MIC/MBC broth microdilution, NRS123 (USA400); assay type: cell-based; details: Staphylococcus aureus, Table 8, NRS123
Description: as §1

[10] = tested on: VISA HIP07256 (NRS19); assay: MIC/MBC broth microdilution, NRS19 (VISA HIP07256); assay type: cell-based; details: Staphylococcus aureus, Table 8, NRS19 (VISA)
Description: as §1

[11] = Staphylococcus aureus, Table 6, MRSA ATCC 43300, 128 μM down to 1.0 μM, 20 hours, read-out: MIC
[12] = Staphylococcus aureus, Table 4, MRSA ATCC 43300, 64 μM down to 0.5 μM, 37° C., 19 hours, read-out: Minimum Inhibitory Concentration
[13] = Table 5, MRSA NRS384 (USA300), 128 μM down to 1.0 μM, 37° C., 19 hours, read-out: Minimum Inhibitory Concentration

MIC ([2]; read-out: MIC): 4 µM (≈ 1.41 µg/mL)
MIC ([3]; Table 8, read-out: MIC): 4 µM (≈ 1.41 µg/mL)
MIC ([4]; Table 8, NRS384, read-out: MIC): 4 µM (≈ 1.41 µg/mL)
MIC ([5]; Table 8, read-out: MIC): 4 µM (≈ 1.41 µg/mL)
MIC [1, 12]: 4 µM (≈ 1.41 µg/mL)
MIC ([1]; Staphylococcus aureus, Table 8, ATCC 43300, read-out: MIC): 4 µM (≈ 1.41 µg/mL)
MIC ([6]; read-out: MIC): 4 µM (≈ 1.41 µg/mL)
MIC ([7]; triplicates, 20 hours, read-out: MIC): 2 µM (≈ 0.707 µg/mL)
MIC ([8]; read-out: MIC): 4 µM (≈ 1.41 µg/mL)
MIC ([9]; read-out: MIC): 4 µM (≈ 1.41 µg/mL)
MIC ([10]; read-out: MIC): 4 µM (≈ 1.41 µg/mL)
SMILES: CCCCC#Cc1ccc(-c2nc(C)c(/C(C)=N/NC(=N)N)s2)cc1 [Compound R1, (E)-2-(1-(2-(4-(hex-1-yn-1-yl)phenyl)-4-methylthiazol-5-yl)ethylidene)hydrazinecarboximidamide]
MBC ([2]; read-out: MBC): 4 µM (≈ 1.41 µg/mL)
MBC ([3]; Table 8, read-out: MBC): 4 µM (≈ 1.41 µg/mL)
MBC ([4]; Table 8, NRS384, read-out: MBC): 4 µM (≈ 1.41 µg/mL)
MBC ([5]; Table 8, read-out: MBC): 4 µM (≈ 1.41 µg/mL)
MBC ([1]; Staphylococcus aureus, Table 8, ATCC 43300, read-out: MBC): 4 µM (≈ 1.41 µg/mL)
MBC ([6]; read-out: MBC): 4 µM (≈ 1.41 µg/mL)
MBC ([7]; read-out: MBC): 2 µM (≈ 0.707 µg/mL)
MBC ([8]; read-out: MBC): 4 µM (≈ 1.41 µg/mL)
MBC ([9]; read-out: MBC): 4 µM (≈ 1.41 µg/mL)
MBC ([10]; read-out: MBC): 4 µM (≈ 1.41 µg/mL)

MIC [1, 12]: > 64 µM
SMILES: CCCCc1ccc(-c2nc(C)c(-c3nnn[nH]3)s2)cc1 [Compound R2, 2-(4-butylphenyl)-4-methyl-5-(1H-tetrazol-5-yl)thiazole]

MIC [1, 12]: > 64 µM
SMILES: CCCCc1ccc(-c2nc(C)c(C(=O)NNC(=O)c3sc(-c4ccc(CCCC)cc4)nc3C)s2)cc1 [Compound R3, 2-(4-butylphenyl)-N′-(2-(4-butylphenyl)-4-methylthiazole-5-carbonyl)-4-methylthiazole-5-carbohydrazide]

MIC [1, 12]: > 64 µM
SMILES: CCCCc1ccc(-c2nc(C)c(C(=O)NNC(=N)N)s2)cc1 [Compound R5, 2-(2-(4-butylphenyl)-4-methylthiazole-5-carbonyl)hydrazinecarboximidamide]

MIC [1, 12]: > 64 µM
SMILES: CCCCc1ccc(-c2nc(C)c(C(N)=O)s2)cc1 [Compound R6, 2-(4-butylphenyl)-4-methylthiazole-5-carboxamide]

MIC [4, 13]: 128 µM (≈ 44.6 µg/mL)
SMILES: CCCCc1ccc(-c2nc(C)c(C(=O)NC[C@@H](O)CO)s2)cc1 [Compound R8, (R)-2-(4-butylphenyl)-N-(2,3-dihydroxypropyl)-4-methylthiazole-5-carboxamide]

MIC [4, 13]: 128 µM (≈ 44.6 µg/mL)
SMILES: CCCCc1ccc(-c2nc(C)c(C(=O)NC[C@H](O)CO)s2)cc1 [Compound R9, (S)-2-(4-butylphenyl)-N-(2,3-dihydroxypropyl)-4-methylthiazole-5-carboxamide]

MIC [4, 13]: 128 µM (≈ 44.2 µg/mL)
SMILES: CCCCc1ccc(-c2nc(C)c(C(=O)NCCN(C)C)s2)cc1 [Compound R10, 2-(4-butylphenyl)-N-(2-(dimethylamino)ethyl)-4-methylthiazole-5-carboxamide]

Second part, the molecule before the results:

SMILES: COc1cc(OC)cc(-c2ccc(-c3nc(C)c(C(C)=O)s3)cc2)c1 [Compound M19, 1-(2-(3′,5′-dimethoxy-[1,1′-biphenyl]-4-yl)-4-methylthiazol-5-yl)ethanone]
MIC ([1]; Staphylococcus aureus, 20 h): > 128 µM

SMILES: [H]/N=C(/N)NN=C(C)c1sc(-c2cc[nH]n2)nc1C [Compound M20]
MIC ([1]; Table 6, MRSA ATCC 43300, 128 μM down to 1.0 μM, 20 hours, read-out: MIC): 8 µM (≈ 2.11 µg/mL)

SMILES: CC(=O)c1sc(-c2ccc(-c3ccc(-c4nc(C)c(C(C)=O)s4)cc3)cc2)nc1C [Compound M21, 1,1′-(2,2′-([1,1′-Biphenyl]-4,4′-diyl)bis(4-methylthiazole-5,2-diyl))diethanone]
MIC [1, 11]: > 128 µM

SMILES: CC(=O)c1sc(-c2cc[nH]n2)nc1C [Compound M22, 1-(4-Methyl-2-(1H-pyrazol-3-yl)thiazol-5-yl)ethanone]
MIC [1, 11]: > 128 µM

SMILES: CC(=O)c1sc(-c2ccc(-c3ccc(-c4ccccc4)cc3)cc2)nc1C [Compound M23, 1-(2-([1,1′:4′,1″-Terphenyl]-4-yl)-4-methylthiazol-5-yl)ethanone]
MIC [1, 11]: > 128 µM

SMILES: C/C(=N/NC(=N)N)c1sc(-c2cc[nH]n2)nc1C [Compound M24, (Z)-2-(1-(4-methyl-2-(1H-pyrazol-3-yl)thiazol-5-yl)ethylidene)hydrazinecarboximidamide]
MIC [1, 11]: > 128 µM
